Data taken from the supplement of paper PMC4862054.

Columns and labels:
Conditions in all cases: 72 h
[1] = test system: CAL-148
Method in brief: (§1)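 Breast cancer cell lines (20 µl suspension) were seeded into 384-well plates holding compound at 5 concentrations in 10-fold steps over a compound-specific 10,000-fold range, then incubated 72 h. Cell death was read first by CellTox Green fluorescence (485/520 nm), then viability by CellTiter-Glo luminescence after 10 min at room temperature. Each plate was normalised to 0.1 % DMSO and a positive kill control. EC50 was fitted from the dose-response curves and censored at the top concentration.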

[2] = test system: MCF-10A
Method in brief: as §1

[3] = test system: SK-BR-3
Method in brief: as §1

[4] = test system: CAL-85-1
Method in brief: as §1

[5] = test system: MDA-MB-231
Method in brief: as §1

[6] = test system: CAL-51
Method in brief: as §1

[7] = test system: HDQ-P1
Method in brief: as §1

[8] = test system: HCC1143
Method in brief: as §1

[9] = test system: MDA-MB-453
Method in brief: as §1

[10] = test system: Hs578T
Method in brief: as §1

[11] = test system: BT-474
Method in brief: as §1

[12] = test system: DU-4475
Method in brief: as §1

[13] = test system: MFM-223
Method in brief: as §1

[14] = test system: MDA-MB-436
Method in brief: as §1

[15] = test system: HCC1937
Method in brief: as §1

[16] = test system: BT-549
Method in brief: as §1

[17] = test system: HCC1599
Method in brief: as §1

[18] = test system: MDA-MB-468
Method in brief: as §1

[19] = test system: CAL-120
Method in brief: as §1

[20] = test system: SK-BR-3; remark: listed apart in the source
Method in brief: (§2)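 The reported EC50 was fitted from percent-inhibition dose-response curves and censored at the highest concentration. Breast cancer cell lines (20 µl suspension) were added to 384-well plates containing compound in 5 µl medium and incubated 72 h, and viability was read with 2.5 µl CellTiter-Blue over 2 h at 37 °C at 560/590 nm. Each plate was normalised to vehicle and a positive kill control and checked by Z'-factor, and rows with zero drug sensitivity score were dropped.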

[21] = test system: MDA-MB-231; remark: listed apart in the source
Method in brief: as §2

[22] = test system: HCC1143; remark: listed apart in the source
Method in brief: as §2

[23] = test system: Hs578T; remark: listed apart in the source
Method in brief: as §2

[24] = test system: MFM-223; remark: listed apart in the source
Method in brief: as §2

[25] = test system: MDA-MB-436; remark: listed apart in the source
Method in brief: as §2

[26] = test system: HCC1937; remark: listed apart in the source
Method in brief: as §2

[27] = test system: BT-549; remark: listed apart in the source
Method in brief: as §2

[28] = test system: HCC1599; remark: listed apart in the source
Method in brief: as §2

[29] = test system: MDA-MB-468; remark: listed apart in the source
Method in brief: as §2

[30] = test system: CAL-120; remark: listed apart in the source
Method in brief: as §2

Structure (SMILES)	EC50, CellTiter-Glo [1] [nM]	EC50, CellTiter-Glo [2] [nM]	EC50, CellTiter-Glo [3] [nM]	EC50, CellTiter-Glo [4] [nM]	EC50, CellTiter-Glo [5] [nM]	EC50, CellTiter-Glo [6] [nM]	EC50, CellTiter-Glo [7] [nM]	EC50, CellTiter-Glo [8] [nM]	EC50, CellTiter-Glo [9] [nM]	EC50, CellTiter-Glo [10] [nM]	EC50, CellTiter-Glo [11] [nM]	EC50, CellTiter-Glo [12] [nM]	EC50, CellTiter-Glo [13] [nM]	EC50, CellTiter-Glo [14] [nM]	EC50, CellTiter-Glo [15] [nM]	EC50, CellTiter-Glo [16] [nM]	EC50, CellTiter-Glo [17] [nM]	EC50, CellTiter-Glo [18] [nM]	EC50, CellTiter-Glo [19] [nM]	EC50, CellTiter-Blue viability [20] [nM]	EC50, CellTiter-Blue viability [21] [nM]	EC50, CellTiter-Blue viability [22] [nM]	EC50, CellTiter-Blue viability [23] [nM]	EC50, CellTiter-Blue viability [24] [nM]	EC50, CellTiter-Blue viability [25] [nM]	EC50, CellTiter-Blue viability [26] [nM]	EC50, CellTiter-Blue viability [27] [nM]	EC50, CellTiter-Blue viability [28] [nM]	EC50, CellTiter-Blue viability [29] [nM]	EC50, CellTiter-Blue viability [30] [nM]
CC(=O)O[C@H]1C(=O)[C@@]2(C)[C@H]([C@H](OC(=O)c3ccccc3)[C@]3(O)C[C@H](OC(=O)[C@H](O)[C@@H](NC(=O)c4ccccc4)c4ccccc4)C(C)=C1C3(C)C)[C@]1(OC(C)=O)CO[C@@H]1C[C@@H]2O [Paclitaxel]	1.96	3.65	0.72	4.73	10.7	7.96	2.81	3.37	22.6	6.32	7.94	44	5.86	4.07	2.62	4.79	16.9	3.47	6.96	2.93	2.29	7.4	5.2	4.49	4.49	4.22	2.7	111	2.7	3.55
CCOc1cc2ncc(C#N)c(Nc3ccc(OCc4ccccn4)c(Cl)c3)c2cc1NC(=O)/C=C/CN(C)C [Neratinib]	95.2	57.8	2.49	91.2		926	309		7.56				692					539	412											
FC(F)c1nc2ccccc2n1-c1nc(N2CCOCC2)nc(N2CCOCC2)n1 [ZSTK474]	1260	540	206	779	720	1010	436	1130	492	493	3040	6590	737	498	2730	396	538	677	958											
COc1c(C)cnc(Cn2cnc3c(Cl)nc(N)nc32)c1C [BIIB021]	199	354	13.7	308	483	227	242	416	153	756	421	329	192	141	157	92.6	190	370	247	28	177	64	47	57.7	429	87.1	44.8	721	353	26.9
COC(=O)C[C@](O)(CCCC(C)(C)O)C(=O)O[C@@H]1C(OC)=C[C@]23CCCN2CCc2cc4c(cc2[C@H]13)OCO4 [Omacetaxine]	56.8	116	86.7	36.2	138	37.5	39.1	80.6	73.9	68.3	299	14.4	102	22.6	64.3	50.3	41.1	45.5	93.8	34.3	36.3	46.9	44	45.3	26.6	9.68	32.1	18	35.7	16.9
COC1=C2C[C@@H](C)C[C@H](OC)[C@H](O)[C@@H](C)/C=C(\C)[C@H](OC(N)=O)[C@@H](OC)/C=C\C=C(/C)C(=O)NC(=CC1=O)C2=O [Geldanamycin]	7190	4380	1820	2680	3390	3480	3910	6310	3390	5350	4080	2470	666	1050	2130	3180	5810	4130	6700	46.8	63.1	36.6	90.5	90	40.9	47.1	46.8	270	64.7	38.1
C#Cc1cccc(Nc2ncnc3cc(OC)c(OCCCCCCC(=O)NO)cc23)c1 [CUDC-101]	1280	242	507	212	689	847	3360	783	123	1920	1970	1500	190	1640	1470	1170	911	202	3230	101	835	361	394	145	969	770	1620	295	200	294
COc1cccc2c1C(=O)c1c(O)c3c(c(O)c1C2=O)C[C@@](O)(C(C)=O)C[C@@H]3O[C@H]1C[C@H](N)[C@H](O)[C@H](C)O1 [Daunorubicin]	134	633	254	380	221	84.2	519	535	470	229	169	211	784	175	692	129	570	109	227	66.4	56.1	46.8	150	667	78.5	24.7	141	444	98.2	41.8
CC(C)C[C@H](NC(=O)[C@H](Cc1ccccc1)NC(=O)c1cnccn1)B(O)O [Bortezomib]	60.1	134	0.28	4.47	13.9	30	12.4	19	22.9	13.1	8.94	27.1	5.1	6.1	71.2	3.96	97	2.93	16.1	2.77	3.89	6.46	22.2	6.67	34.9	2.93	7.83	79.5	2.95	5.42
COc1ncc(-c2ccc3nccc(-c4ccnnc4)c3c2)cc1NS(=O)(=O)c1ccc(F)cc1F	76.8	12.9	6.82	15.8	56.6	34.7	14.2	32.5	14.8	37.6	19.8	228	16.2	23.8	130	21.8	13.9	43	27.6	3.24	33.5	19.8	36.6	8.62	26.4	27.9	45.1	7.37	49.8	20.1
